In general, IC50 refers to the concentration needed to halve the response being measured.

SMILES strings stand for the structures. “And” between values parts separate entries of the source, which are not always exact repeats. Identical values can stand only once.

T1 sequence (P20701 26-1170): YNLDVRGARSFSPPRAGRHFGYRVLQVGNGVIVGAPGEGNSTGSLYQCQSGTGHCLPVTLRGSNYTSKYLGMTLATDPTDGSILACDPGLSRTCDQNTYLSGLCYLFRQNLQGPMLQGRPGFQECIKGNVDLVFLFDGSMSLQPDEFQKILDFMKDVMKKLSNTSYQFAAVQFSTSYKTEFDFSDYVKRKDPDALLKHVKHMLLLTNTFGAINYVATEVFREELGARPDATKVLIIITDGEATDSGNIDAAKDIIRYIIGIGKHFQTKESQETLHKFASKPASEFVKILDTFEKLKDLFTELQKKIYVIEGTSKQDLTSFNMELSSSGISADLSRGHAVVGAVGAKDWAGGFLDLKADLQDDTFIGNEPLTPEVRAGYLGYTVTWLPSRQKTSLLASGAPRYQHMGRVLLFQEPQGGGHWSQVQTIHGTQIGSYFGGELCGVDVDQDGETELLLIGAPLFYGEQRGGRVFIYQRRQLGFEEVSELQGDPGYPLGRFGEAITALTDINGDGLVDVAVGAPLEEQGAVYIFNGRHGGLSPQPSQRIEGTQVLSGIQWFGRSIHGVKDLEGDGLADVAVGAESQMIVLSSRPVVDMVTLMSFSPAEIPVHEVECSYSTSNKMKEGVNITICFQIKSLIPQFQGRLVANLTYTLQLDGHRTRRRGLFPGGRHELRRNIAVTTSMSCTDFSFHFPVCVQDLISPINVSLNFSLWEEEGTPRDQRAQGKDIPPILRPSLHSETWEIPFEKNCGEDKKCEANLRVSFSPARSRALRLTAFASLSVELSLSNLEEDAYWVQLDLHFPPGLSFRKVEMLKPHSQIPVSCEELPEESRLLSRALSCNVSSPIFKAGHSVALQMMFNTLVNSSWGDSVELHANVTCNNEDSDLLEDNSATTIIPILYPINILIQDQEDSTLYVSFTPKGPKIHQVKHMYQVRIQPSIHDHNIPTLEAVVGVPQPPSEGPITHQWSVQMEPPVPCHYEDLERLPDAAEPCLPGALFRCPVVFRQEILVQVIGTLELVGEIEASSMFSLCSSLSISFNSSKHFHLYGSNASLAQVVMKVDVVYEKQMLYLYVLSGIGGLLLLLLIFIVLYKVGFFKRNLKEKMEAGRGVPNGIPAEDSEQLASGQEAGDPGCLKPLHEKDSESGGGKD
T1 sequence (P05107 23-769 partner): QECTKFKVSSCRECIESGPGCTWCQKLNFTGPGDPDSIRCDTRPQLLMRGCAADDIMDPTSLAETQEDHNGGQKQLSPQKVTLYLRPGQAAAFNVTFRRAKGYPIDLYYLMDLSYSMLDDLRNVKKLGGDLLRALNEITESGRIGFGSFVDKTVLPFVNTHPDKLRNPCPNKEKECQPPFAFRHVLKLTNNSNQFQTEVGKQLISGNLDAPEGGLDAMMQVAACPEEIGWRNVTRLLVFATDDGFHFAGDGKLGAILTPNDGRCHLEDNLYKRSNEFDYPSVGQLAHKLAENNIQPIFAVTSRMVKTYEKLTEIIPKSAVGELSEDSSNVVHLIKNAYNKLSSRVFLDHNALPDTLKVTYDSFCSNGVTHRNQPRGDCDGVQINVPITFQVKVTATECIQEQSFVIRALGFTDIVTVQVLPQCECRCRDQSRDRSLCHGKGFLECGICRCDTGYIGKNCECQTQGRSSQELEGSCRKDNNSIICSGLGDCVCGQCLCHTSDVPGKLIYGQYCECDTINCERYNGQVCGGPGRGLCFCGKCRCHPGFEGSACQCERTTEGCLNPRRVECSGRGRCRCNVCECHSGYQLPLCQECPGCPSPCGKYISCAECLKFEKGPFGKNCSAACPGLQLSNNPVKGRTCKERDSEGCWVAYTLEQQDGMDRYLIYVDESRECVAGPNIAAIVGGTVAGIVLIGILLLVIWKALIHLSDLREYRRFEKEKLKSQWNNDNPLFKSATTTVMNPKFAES

This assay concerns the target T1, LFA-1 (Homo sapiens, UniProt P20701).
T1 construct: endogenous in cells; host or cells: Jurkat cells
Description: V well cell adhesion assay, LFA-1-mediated Jurkat cell binding to ICAM-1 (LFA-1 adhesion). In kind it is cell-based. To be noted: Jurkat cells on ICAM-1/Fc; mean ±SD of ≥3 independent experiments in triplicates or single experiments in triplicates. On the procedure:
Cell-Based Assay to Determine the Effect of the Compounds on LFA-1-Mediated Cell Adhesion (LFA-1 Adhesion)
Purpose of the Assay: The V well cell adhesion assay measures the ability of the compounds to interfere with LFA-1-mediated binding to ICAM-1 at cellular level. The assay has been successfully used in the past to identify and characterize small molecules LFA-1 inhibitors.
Experimental Protocol: The adhesion assay was performed in Vbottom 96-well plates as described previously [Weitz-Schmidt 2012]. Briefly, the plates were coated with anti-human IgG mAb diluted in coating buffer (20 mM Tris containing 150 mM NaCl, pH 8) (1 μg/mL) and incubated overnight at 4° C. The plates were flicked out and blocked with blocking buffer (50 mM Tris base, 150 mM NaCl, 1.5% BSA (w/v), pH 7.2) at 37° C. for 90 min. Then human recombinant ICAM-1/Fc (R&D Systems) diluted in coating buffer (0.3 μg/mL) was added to each well. The plates were incubated at 37° C. for 90 min and washed with binding buffer (50 mM Tris base, 150 mM NaCl, 1.5% BSA (w/v), 2 mM MgCl2, 2 mM MnCl2, 5 mM D-glucose monohydrate, pH 7.2-7.4) to remove unbound ligand.
Jurkat cells were cultured under standard conditions as recommended by the American Type Culture collection (ATCC). The cells were fluorescently labelled with BCECF-AM in PBS (1 μg/mL) at 37° C. for 20 min in the dark, centrifuged and washed with PBS. The test compounds were dissolved in DMSO at 10 mM and serially pre-diluted in DMSO (100%) to avoid precipitation, before performing final dilution steps in binding buffer.
The labelled Jurkat cells were re-suspended in binding buffer and test compounds or solvent control were added. The DMSO concentration was kept constant in all samples (1% DMSO as final assay concentration). After 40 min at 37° C. (LFA-1 activation and compound pre-incubation step) the cell suspension (3×10^5 cells/mL in binding buffer) was pipetted up and down and transferred to the ligand-coated microtiter V well plates (30 000 cells/well). The plates were centrifuged for 4 min at room temperature (rt) at 1000 rpm (Centrifuge Eppendorf 5810 R), setting the brake off Non-adherent cells that accumulated in the center of the Vbottom were quantified using a fluorescence reader with the filter sets allowing excitation at 485 nm and quantification of emission at 535 nm. The determination of the half maximal inhibitory concentration (IC50) of the compounds was calculated using the software GraphPad Prism 6.
With `CC12C(=O)N(c3cc(Cl)cc(Cl)c3)C(=O)C1C2(c1ccccc1)c1ccncc1` (single isomer, unassigned) [4 o or 4′o diastereomer II (racemate), rac-(1 S, 5S, 6S)- and rac-(1 S, 5S, 6R)-3-(3,5-Dichlorophenyl)-1-methyl-6-phenyl-6-(pyridin-4-yl)-3-azabicyclo[3.1.0]hexane-2,4-dione], the IC50 is 0.458 µM.
On to `C[C@]12C(=O)N(c3cc(Cl)cc(Cl)c3)C(=O)[C@H]1[C@@]2(C(=O)N1CCOCC1)c1ccc(C(F)(F)F)cc1` (racemic) [4′l (racemate), rac-(1S,5R,6R)-3-(3,5-Dichlorophenyl)-1-methyl-6-[(morpholin-4-yl)carbonyl]-6-[4-(trifluoromethyl)phenyl]-3-azabicyclo[3.1.0]hexane-2,4-dione], for which the half-inhibitory concentration (IC50) was > 3 µM.
With `O=C1[C@@H]2[C@H](C(=O)N1c1cc(Cl)cc(Cl)c1)[C@@H]2c1ccccc1` [4′c, rel-(1R,5S,6r)-3-(3,5-Dichlorophenyl)-6-phenyl-3-azabicyclo[3.1.0]hexane-2,4-dione] the figure was 1.59 µM; with `C[C@]12C(=O)N(c3cc(Cl)cc(Cl)c3)C(=O)[C@H]1C2(c1ccc(OC(F)(F)F)cc1)c1ccc(OC(F)(F)F)cc1` (racemic) [4q (racemate), rac-(1S,5S)-3-(3,5-Dichlorophenyl)-1-methyl-6,6-bis[4-(trifluoromethoxy)phenyl]-3-azabicyclo[3.1.0]hexane-2,4-dione], 0.101 µM; with `COc1ccc(C2(c3ccc(Cl)cc3)C3C(=O)N(c4cc(Cl)cc(Cl)c4)C(=O)C32C)cc1` (single isomer, unassigned) [4s or 4′s diastereomer II (racemate), rac-(1 S, 5S, 6R)- and rac-(1 S, 5S, 6S)-6-(4-Chlorophenyl)-3-(3,5-dichlorophenyl)-6-(4-methoxyphenyl)-1-methyl-3-azabicyclo[3.1.0]hexane-2,4-dione], 0.153 µM.
With `CC12C(=O)N(c3cc(Cl)cc(Cl)c3)C(=O)C1C2(c1ccccc1)c1ccccc1` (single isomer, unassigned) [4b enantiomer B] the figure was > 10 µM; with `C[C@]12C(=O)N(c3cc(Cl)cc(Cl)c3)C(=O)[C@H]1[C@@]2(C(=O)N1CCOCC1)c1ccc(Br)cc1` (racemic) [4′k (racemate), rac-(1S,5R,6R)-6-(4-Bromophenyl)-3-(3,5-dichlorophenyl)-1-methyl-6-[(morpholin-4-yl)carbonyl]-3-azabicyclo[3.1.0]hexane-2,4-dione], 3.47 µM; with `O=C1[C@@H]2[C@H](C(=O)N1c1cc(Cl)cc(Cl)c1)[C@@H]2c1ccc(Br)cc1` [4′e, rel-(1R,5S,6r)-6-(4-Bromophenyl)-3-(3,5-dichloro-phenyl)-3-azabicyclo[3.1.0]hexane-2,4-dione], 3.33 µM.
Turning to `N#Cc1ccc(C2(c3ccncc3)C3C(=O)N(c4cc(Cl)cc(Cl)c4)C(=O)C32)cc1` (single isomer, unassigned) [4y or 4′y diastereomer II, rel-4-[(1 S, 5R, 6s)- and rel-4-[(1 S, 5R, 6r)-3-(3,5-Dichlorophenyl)-2,4-dioxo-6-(pyridin-4-yl)-3-azabicyclo[3.1.0]hexan-6-yl]benzonitrile], the IC50 is ≥ 1 µM.
With `C[C@]12C(=O)N(c3cc(Cl)cc(Cl)c3)C(=O)[C@H]1[C@@]2(C(=O)N1CCOCC1)c1ccc(OC(F)(F)F)cc1` (racemic) [4′m (racemate), rac-(1S,5R,6R)-3-(3,5-Dichlorophenyl)-1-methyl-6-[(morpholin-4-yl)carbonyl]-6-[4-(trifluoromethoxy)phenyl]-3-azabicyclo[3.1.0]hexane-2,4-dione] the figure was 0.405 µM; with `N#Cc1ccc(C2(c3ccc(OC(F)(F)F)cc3)C3C(=O)N(c4cc(Cl)cc(Cl)c4)C(=O)C32)cc1` (single isomer, unassigned) [4r or 4′r diastereomer I], 0.963 µM; with `CC12C(=O)N(c3cc(Cl)cc(Cl)c3)C(=O)C1C2(c1ccccc1)c1ccco1` (single isomer, unassigned) [4t or 4′t Diastereomer I (racemate), rac-(1 S, 5S, 6R)- and rac-(1 S, 5S, 6S)-3-(3,5-Dichlorophenyl)-6-(furan-2-yl)-1-methyl-6-phenyl-3-azabicyclo[3.1.0]hexane-2,4-dione], 0.87 µM.
With `CC12C(=O)N(c3cc(Cl)cc(Cl)c3)C(=O)C1C2(c1ccc(C#N)cc1)c1ccc(OC(F)(F)F)cc1` (single isomer, unassigned) [4i/4′i diastereomer I (racemate), rac-4-[(1 S, 5S, 6S)- and rac-4-(1 S, 5S, 6R)-3-(3,5-Dichlorophenyl)-1-methyl-2,4-dioxo-6-[4-(trifluoro-methoxy)-phenyl]-3-azabicyclo[3.1.0]hexan-6-yl]benzonitrile] the figure was 0.562 µM and 0.53 µM; with `CC12C(=O)N(c3cc(Cl)cc(Cl)c3)C(=O)C1C2(c1ccncc1)c1ccc(C#N)cc1` (single isomer, unassigned) [4z or 4′z diastereomer II (racemate)], 0.071 µM.
In the case of `CC12C(=O)N(c3cc(Cl)cc(Cl)c3)C(=O)C1C2(c1ccncc1)c1ccc(C#N)cc1` (single isomer, unassigned) [4z or 4′z diastereomer I (racemate)] it was > 1 µM.
For the compound `N#Cc1ccc(C2(c3ccncc3)C3C(=O)N(c4cc(Cl)cc(Cl)c4)C(=O)C32)cc1` (single isomer, unassigned) [4y or 4′y diastereomer I, rel-4-[(1 S, 5R, 6s)- and rel-4-[(1 S, 5R, 6r)-3-(3,5-Dichlorophenyl)-2,4-dioxo-6-(pyridin-4-yl)-3-azabicyclo[3.1.0]hexan-6-yl]benzonitrile], the IC50 was > 1 µM.
With `C[C@]12C(=O)N(c3cc(Cl)cc(Cl)c3)C(=O)[C@H]1[C@@]2(C(=O)N1CCOCC1)c1ccc(C#N)cc1` (racemic) [4′n (racemate), rac-4-[(1S,5R,6R)-3-(3,5-Dichlorophenyl)-1-methyl-6-[(morpholin-4-yl)carbonyl]-2,4-dioxo-3-azabicyclo[3.1.0]hexan-6-yl]benzonitrile] the figure was 0.636 µM.
In the case of `COc1ccc(C2(c3ccc(Cl)cc3)C3C(=O)N(c4cc(Cl)cc(Cl)c4)C(=O)C32C)cc1` (single isomer, unassigned) [4s or 4′s diastereomer I (racemate), rac-(1 S, 5S, 6R)- and rac-(1 S, 5S, 6S)-6-(4-Chlorophenyl)-3-(3,5-dichlorophenyl)-6-(4-methoxyphenyl)-1-methyl-3-azabicyclo[3.1.0]hexane-2,4-dione] it was 1.83 µM; in that of `N#Cc1ccc(C2(c3ccc(OC(F)(F)F)cc3)C3C(=O)N(c4cc(Cl)cc(Cl)c4)C(=O)C32)cc1` (single isomer, unassigned) [4r or 4′r diastereomer II], 0.132 µM.
The compound `O=C1[C@@H]2[C@H](C(=O)N1c1cc(Cl)cc(Cl)c1)C2(c1ccccc1)c1ccccc1` [Compound 4a, 3-(3,5-Dichlorophenyl)-6,6-diphenyl-3-azabicyclo[3.1.0]hexane-2,4-dione] registered an IC50 of 8.48 µM.
Turning to `CC12C(=O)N(c3cc(Cl)cc(Cl)c3)C(=O)C1C2(c1ccccc1)c1ccncc1` (single isomer, unassigned) [4 o or 4′o diastereomer I (racemate), rac-(1 S, 5S, 6S)- and rac-(1 S, 5S, 6R)-3-(3,5-Dichlorophenyl)-1-methyl-6-phenyl-6-(pyridin-4-yl)-3-azabicyclo[3.1.0]hexane-2,4-dione], the IC50 was > 3 µM.

These data come from patent US10077238B2, “Small molecule LFA-1 inhibitors” (ALLOCYTE PHARMACEUTICALS AG, priority 2014, dated 2018).
